US9739765B2, “Metal-based covalent viability reagent for single cell analysis” (The Board of Trustees of the Leland Stanford Junior …, priority 2013, dated 2017)

What was measured:
KG-1 cells = experiment: Cisplatin viability labeling of partially heat-killed KG-1 cells, mass cytometry; format: cell-based, human; conditions: KG-1 cells spiked with approximately 30% heat-killed cells; 1 min cisplatin at 10, 50, or 250 μM (all doses)
Method: Generation of non-viable control cells. To generate samples with known amounts of non-viable cells, an aliquot of cultured cells was heat-killed at 55° C. for 1 hour, cooled to 37° C. and then spiked into each culture of viable cells at known percentages based on Trypan blue exclusion staining. Samples were then prepared for fluorescence and mass cytometry and the live/dead ratio of cells determined by each technology.
Cisplatin exposure. Cisplatin (WR International, Radnor, Pa., Cat #89150-634) was stored at −80° C. as a stock solution of 100 mM in DMSO (Hybrimax, Sigma Aldrich, St Louis, Mo.). Working solutions (10 mM) were prepared fresh on the day of each experiment by diluting the stock solution into PBS at 4° C. […]
(§1) Mass cytometry measurement. Cells were analyzed on a CyTOF® mass cytometer (DVS Sciences, Richmond Hill, Ontario, Canada). […] Cells were measured at approximately 500 cells per second, noise reduction was activated and cell extraction parameters were set to: Cell length, range was set from 10 to 65 pushes, and the lower convolution threshold was set to 10.
Comparison between fluorescence and mass cytometry protocols. […] In the first experiment a suspension of human myeloid KG-1 cells spiked with approximately 30% of heat-killed KG-1 cells (determined by Trypan blue extrusion), was tested with Aqua and cisplatin. […]

[1] = tested on: Jurkat, KG-1, HeLa, OVCAR3 cell lines; experiment: Cisplatin viability labeling of suspension and adherent cell lines spiked with heat-killed cells, mass cytometry; format: cell-based
Method: Cell culture. The cancer cell lines Jurkat (T acute lymphoblastic leukemia suspension cells) and OVCAR-3 (ovarian carcinoma adherent cells) were cultured in RPMI-1640 (GIBCO, Invitrogen, Carlsbad, Calif.) with 10% heat-inactivated fetal bovine serum (FBS), 2 mM L-glutamine and 100 U/ml penicillin. The suspension cell lines KG-1 (acute myeloid leukemia) and HL-60 (acute myeloid leukemia cells) were cultured in IMDM (GIBCO, Invitrogen, Carlsbad, Calif.) with 20% heat-inactivated FBS and 100 U/ml penicillin. The adherent cell line HeLa (cervical carcinoma) was cultured in DMEM (GIBCO, Invitrogen, Carlsbad, Calif.) with 10% heat-inactivated FBS and 100 U/ml penicillin. All cell lines were maintained at 37° C. in a humidified 5.0% CO2 environment. Peripheral blood from healthy donors was purchased from the Stanford Blood Bank according to an IRB-approved protocol. […] Samples were then prepared for fluorescence and mass cytometry and the live/dead ratio of cells determined by each technology. […] Cells were analyzed on a CyTOF® mass cytometer (DVS Sciences, Richmond Hill, Ontario, Canada). […] Cells were measured at approximately 500 cells per second, noise reduction was activated and cell extraction parameters were set to: Cell length, range was set from 10 to 65 pushes, and the lower convolution threshold was set to 10. […]

[2] = tested on: phosphorylation of SLP-76 (Y128) and SLP-65 in PBMCs; experiment: Pervanadate stimulation of cisplatin-labeled PBMCs, pSLP-76/65 signaling; format: cell-based; conditions: myeloid cells, T cells and B cells of PBMCs; 125 μM, 15 min
Method: Pervanadate stimulation of PBMCs. Frozen PBMCs were thawed at 37° C. and resuspended in RPMI-1640/10% FBS/2 mM EDTA. A fraction of the PBMCs (30%) was heat-killed separately and spiked back in, as described above. Cells were treated with cisplatin according to the standard protocol described above, at 10^6 cells/ml. Samples were then treated with activated sodium orthovanadate at a final concentration of 125 μM for 15 min at 37° C. Cells were fixed with 1.6% (final concentration) PFA for 10 min at room temperature.
Antibody staining. […]
as §1
Cisplatin as a viability indicator for primary samples. […] Therefore to evaluate signaling in PBMCs, phosphorylation of SLP-76 (Y128) (T cells and myeloid cells) and SLP-65 (Y76) (B cells) was determined after a […] exposure to vanadate, a global tyrosine phosphatase inhibitor, shown to increase intracellular kinase activity and phosphotyrosine levels.

## N.N.[Cl][Pt][Cl] [cisplatin, Cisplatin [Pt(NH3)2Cl]]
KG-1 cells
  frequency of cisplatin positive (dead) cells: 26-28%
[1]; 1-minute pulse protocol, routinely observed (FIG. 2-5)
  signal-to-noise ratios separating live and dead cells: greater than 10 fold
[1]; each cisplatin concentration (10, 50, 250 μM), HeLa, OVCAR3, Jurkat, KG-1
  signal-to-noise ratios, cisplatin-high (dead) vs cisplatin-low (live) populations: above 10

## activated sodium orthovanadate [pervanadate]
[2]
  SLP-76/65 phosphorylation in response to pervanadate, cisplatin-high populations: no response
  SLP-76/65 phosphorylation in response to pervanadate, cisplatin-low populations: strong increase
